Data taken from article PMC6792352, “Limited Chemical Structural Diversity Found to Modulate Thyroid Hormone Receptor in the Tox21 Chemical Library” (Environmental Health Perspectives, 2019).
Counter-ions that a name gives are not always drawn.

assay: in vitro; conditions: rat, gh3-tre-luc cells, AC50 (uM) modified / 1000

SMILES	CC50 at 24 h [µM]
Cc1ccc2oc(CN(Cc3ccccc3)C(=O)Nc3c(F)cc(F)cc3F)c(-c3ccc(Cl)cc3)c2c1 [FR145237]	> 80
COC(=O)[C@@H](N)CCCNC(=N)N[N+](=O)[O-] [L-Nitroarginine methyl ester]	> 50
CCOC(=O)/C=C/c1ccccc1 [Ethyl cinnamate]	> 90
NC(=O)c1cc[n+](CC2=C(C(=O)O)N3C(=O)[C@@H](NC(=O)[C@@H](c4ccccc4)S(=O)(=O)[O-])[C@H]3SC2)cc1 [Cefsulodin sodium]	> 20
CC(C)Cn1cnc2c(N)nc3ccccc3c21 [Imiquimod]	> 50
OCC(CO)(CO)CO [Pentaerythritol]	> 100
CCCCC(O)(Cn1cncn1)c1ccc(Cl)cc1Cl (stereo not drawn) [Hexaconazole]	54.6
CC(=O)OCc1ccc2c(c1)OCO2 [Piperonyl acetate]	> 90
C[C@@H]1C[C@H]2[C@@H]3CCC4=CC(=O)C=C[C@]4(C)[C@@]3(F)[C@@H](O)C[C@]2(C)[C@H]1C(=O)CO [Desoximetasone]	> 50
CCc1ccccc1 [Ethylbenzene]	> 90
Nc1cccc(S(=O)(=O)O)c1 [3-Aminobenzenesulfonic acid]	> 90
CCCCCCOc1cc(C)c(O)c(C)c1C [1-O-Hexyl-2,3,5-trimethylhydroquinone]	42.6
C=C(C)C(=O)NCCC[N+](C)(C)C [N,N,N-Trimethyl-3-[(2-methylacryloyl)amino]propan-1-aminium chloride]	> 90
CC(=O)Oc1ccccc1C(=O)O [Aspirin]	> 90
O=C(Cl)c1ccccc1 [Benzoyl chloride]	> 90
O=C(Cl)c1cccc(C(=O)Cl)c1 [1,3-Benzenedicarbonyl dichloride]	> 90
CCC(C)(C)C1CCC(O)CC1 (stereo not drawn) [4-(2-Methylbutan-2-yl)cyclohexanol]	> 90
c1ccc(C[n+]2cccc3ccccc32)cc1 [1-Benzylquinolinium chloride]	> 90
Cc1c(-c2ccc(O)cc2)n(Cc2ccc(OCCN3CCCCCC3)cc2)c2ccc(O)cc12 [Bazedoxifene acetate]	8.31
CN(CCCCCCCCCCN(C)C(=O)Oc1cccc([N+](C)(C)C)c1)C(=O)Oc1cccc([N+](C)(C)C)c1 [Demecarium bromide]	> 20
CC(C)(C)NC[C@H](O)COc1nsnc1N1CCOCC1 [(S)-Timolol]	> 50
Cc1ccccc1C#N [2-Tolunitrile]	> 90
COC(=O)[C@H]1[C@H]2C[C@@H]3c4[nH]c5cc(OC)ccc5c4CCN3C[C@H]2C[C@@H](OC(=O)COc2ccc(OC)cc2)[C@@H]1OC [Mefeserpine]	> 50

SMILES	CC50 at 24 h [µM]
CC(=O)OCCC(C)CC(C)(C)C (stereo not drawn) [3,5,5-Trimethylhexyl acetate]	> 90
CC(C)C1CCC(O)CC1 (stereo not drawn) [4-Isopropylcyclohexanol]	> 90
C[C@]12CC[C@@H]3c4ccc(O)cc4CC[C@H]3[C@@H]1CC[C@@H]2OP(=O)(O)O [Estradiol phosphate]	> 50
OC[C@H]1O[C@@H](O[C@@H]2[C@@H](CO)OC(O)(CO)[C@H]2O)[C@H](O)[C@@H](O)[C@H]1O (mixture of isomers) [Lactulose]	> 50
CCCCNS(=O)(=O)c1ccccc1 [N-Butylbenzenesulfonamide]	> 90
CC12CC1(C)C(=O)N(c1cc(Cl)cc(Cl)c1)C2=O (stereo not drawn) [Procymidone]	> 90
CC(C)OC(=O)Nc1cccc(Cl)c1 [Chlorpropham]	> 90
CC(=O)/C=C/[C@H]1C(C)=CC[C@@H](C)C1(C)C [alpha-Irone]	> 90
Cc1nn(-c2cc(NS(C)(=O)=O)c(Cl)cc2Cl)c(=O)n1C(F)F [Sulfentrazone]	> 90
C=CC(=O)OCC(CO)(COCC(COC(=O)C=C)(COC(=O)C=C)COC(=O)C=C)COC(=O)C=C [Dipentaerythritol pentaacrylate]	1.74
O=[N+]([O-])NC1=NCCN1Cc1ccc(Cl)nc1 [Imidacloprid]	> 90
CC(CNC1CCCCC1)OC(=O)c1ccccc1 (stereo not drawn) [Hexylcaine hydrochloride]	> 20
CCOC(=O)[C@H](CCc1ccccc1)N[C@@H](C)C(=O)N1CC2(C[C@H]1C(=O)O)SCCS2 [Spirapril hydrochloride]	> 50
CC(=O)NCCO [N-(2-Hydroxyethyl)acetamide]	> 90
O=C(N/N=C/c1ccc([N+](=O)[O-])o1)c1ccc(O)cc1 [Nifuroxazide]	> 20
Clc1cc(Cl)c(Cl)c(Cl)c1 [1,2,3,5-Tetrachlorobenzene]	> 90
Cc1cscn1 [4-Methylthiazole]	> 90
O=[N+]([O-])c1ccc(O/N=C/c2cc(Br)c(O)c(Br)c2)c([N+](=O)[O-])c1 [Bromofenoxim]	26
CC(=Cc1ccccc1)[N+](=O)[O-] [(2-Nitro-1-propenyl)benzene]	10.3
CCN1CCC2(CC1)COc1cc3c(cc12)N(C(=O)c1ccc(-c2ccc(-c4nnc(C)o4)cc2C)cc1)CC3 [SB236057A]	3
CN/C(=C\[N+](=O)[O-])NCCSCc1ccc(CN(C)C)o1 [Ranitidine]	> 90
CCCCCCCC/C=C/CCCOC(C)=O [(E)-4-Tridecen-l-yl acetate]	> 90
CC1=C(CC=O)C(C)(C)CCC1 [2,6,6-Trimethyl-1-cyclohexene-1-acetaldehyde]	> 90

SMILES	CC50 at 24 h [µM]
O=C1c2ccccc2C(=O)C1(O)O [Ninhydrin]	> 90
CC(=O)N[C@@H](CC(C)C)C(=O)O [Acetyl-L-leucine]	> 50
CC(C)(C)c1cc(CCC(=O)OCC(COC(=O)CCc2cc(C(C)(C)C)c(O)c(C(C)(C)C)c2)(COC(=O)CCc2cc(C(C)(C)C)c(O)c(C(C)(C)C)c2)COC(=O)CCc2cc(C(C)(C)C)c(O)c(C(C)(C)C)c2)cc(C(C)(C)C)c1O [Irganox 1010]	> 40
CCC(C)c1cccc(C(C)CC)c1O (stereo not drawn) [2,6-Di(butan-2-yl)phenol]	72.2
C[C@@H]1C(=O)NC2=Nc3cccc(Cl)c3CN21 [Quazinone]	> 50
O=S1(=O)OC(c2ccc(O)cc2)(c2ccc(O)cc2)c2ccccc21 [Phenol Red sodium salt]	46.9
C[C@]12CC[C@H]3[C@@H](CCC4=CC(=O)CC[C@@H]43)[C@@H]1CC[C@@H]2O [Nandrolone]	> 90
COc1nc(C)nc(N)n1 [2-Methyl-4-amino-6-methoxy-s-triazine]	> 90
CCN(CC)CCOc1ccc(C(O)(Cc2ccc(Cl)cc2)c2ccc(C)cc2)cc1 (stereo not drawn) [Triparanol]	8.76
CC(C)CCCCCOC(=O)COc1ccc(Cl)cc1Cl [2,4-D isooctyl ester]	> 90
CCOC(=O)Nc1ccc2c(c1)N(C(=O)CCN1CCOCC1)c1ccccc1S2 [Moricizine hydrochloride]	> 20
CCN(CC)c1ccc(C(=O)c2ccccc2C(=O)O)c(O)c1 [2-[4-(Diethylamino)-2-hydroxybenzoyl]benzoic acid]	> 90
C[Si]1(C)O[Si](C)(C)O[Si](C)(C)O[Si](C)(C)O[Si](C)(C)O1 [Decamethylcyclopentasiloxane]	> 90
CN1CCN(c2c(F)cc3c(=O)c(C(=O)O)cn(CCF)c3c2F)CC1 [Fleroxacin]	> 50
O=C(O)CCNC(=O)c1ccccc1 [Betamipron]	> 50
C1=C\CC/C=C\CC/1 [1,5-Cyclooctadiene]	> 100
N[C@H](C(=O)O)c1ccc(O)cc1 [Oxfenicine]	> 50
CCCCCC=CCC(=O)OC [Methyl 3-nonenoate]	> 90
c1ccc(-c2ccc(C(c3ccccc3)n3ccnc3)cc2)cc1 (stereo not drawn) [Bifonazole]	45.2
CN1CCc2cc(Cl)c(O)cc2[C@H]2c3ccccc3CC[C@@H]21 [ecopipam]	17.4
COc1cccc(OC)c1C(=O)O [2,6-Dimethoxybenzoic acid]	> 90
COC(=O)c1ccc(OC)cc1 [Methyl 4-methoxybenzoate]	> 90
Nc1nc2c(ncn2CCC(CO)CO)c(=O)[nH]1 [Penciclovir]	> 50

same assay, conditions: rat, gh3-tre-luc cells, AC50 (uM) modified / 1000, Tox21_110001=Tox21_111815; viability, 1 nM T3 present, 24 h

SMILES	CC50 at 24 h [µM]
CC(C)C(Br)C(=O)NC(N)=O (stereo not drawn) [Bromisovalum]	> 50

same assay, conditions: rat, gh3-tre-luc cells, AC50 (uM) modified / 1000, Tox21_110001=Tox21_112075; viability, 1 nM T3 present, 24 h

SMILES	CC50 at 24 h [µM]
COP(=S)(OC)Oc1ccc(Sc2ccc(OP(=S)(OC)OC)cc2)cc1 [Temephos]	> 50

same assay, conditions: rat, gh3-tre-luc cells, AC50 (uM) modified / 1000, Tox21_110001=Tox21_202076; viability, 1 nM T3 present, 24 h

SMILES	CC50 at 24 h [µM]
C=CC#N [Acrylonitrile]	> 100

same assay, conditions: rat, gh3-tre-luc cells, AC50 (uM) modified / 1000, Tox21_110001=Tox21_202228; viability, 1 nM T3 present, 24 h

SMILES	CC50 at 24 h [µM]
CCCN(CCC)c1c([N+](=O)[O-])cc(C(C)C)cc1[N+](=O)[O-] [Isopropalin]	89.1

same assay, conditions: rat, gh3-tre-luc cells, AC50 (uM) modified / 1000, Tox21_110001=Tox21_300394; viability, 1 nM T3 present, 24 h

SMILES	CC50 at 24 h [µM]
O=C(O)C(F)(F)C(F)(F)C(F)(F)C(F)(F)C(F)(F)F [Perfluorohexanoic acid]	> 90

same assay, conditions: rat, gh3-tre-luc cells, AC50 (uM) modified / 1000, Tox21_110001=Tox21_300422; viability, 1 nM T3 present, 24 h

SMILES	CC50 at 24 h [µM]
CCCN(CCC)c1c([N+](=O)[O-])cc(C(C)C)cc1[N+](=O)[O-] [Isopropalin]	45.3

same assay, conditions: rat, gh3-tre-luc cells, AC50 (uM) modified / 1000, Tox21_110001=Tox21_301778; viability, 1 nM T3 present, 24 h

SMILES	CC50 at 24 h [µM]
COP(=S)(OC)Oc1ccc(Sc2ccc(OP(=S)(OC)OC)cc2)cc1 [Temephos]	> 90

same assay, conditions: rat, gh3-tre-luc cells, AC50 (uM) modified / 1000, Tox21_110001=Tox21_302209; viability, 1 nM T3 present, 24 h

SMILES	CC50 at 24 h [µM]
CCOP(=S)(OCC)Oc1cc(-c2ccccc2)on1 [Isoxathion]	> 90

same assay, conditions: rat, gh3-tre-luc cells, AC50 (uM) modified / 1000, Tox21_110001=Tox21_302951; viability, 1 nM T3 present, 24 h

SMILES	CC50 at 24 h [µM]
C=CC#N [Acrylonitrile]	> 90
